Among the test systems are 786-0; ACHN; CCRF-CEM; EKVX; HCT-116; HL-60; KM12; LOX IMVI; M14; NCI-H460; NCI-H522; OVCAR-3; SF-295; SN12C; SR; TK-10; UACC-257; UO-31; MDA-MB-435.
Assay in all cases: inhibition of tumour cell growth, NCI panel, 48 h

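Cultured in 96-well plates, cells were exposed to test compound for 48 hours across five concentrations. GI50 is the concentration that inhibits growth by half.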 Calls of active or inactive are those of the source. No stated cut-off is given here; in the data, active = GI50 up to about 1.1 µM and inactive = higher.

This is an account of results in ChEMBL document CHEMBL1201862, “PubChem BioAssay data set” (2004).

`N#C/C(=C\c1ccc(O)c(O)c1)C(=O)NC1CCC(CC2CCC(NC(=O)/C(C#N)=C/c3ccc(O)c(O)c3)CC2)CC1` (centres undefined): the GI50 with 786-0 is 1.27 µM (inactive); with ACHN, 0.718 µM (active); with CCRF-CEM, 0.293 µM (active); with EKVX it was 3.48 µM (inactive); in the assay with HCT-116, 0.233 µM (active); in the assay with HL-60 it was 0.902 µM (active). The GI50 in the assay with KM12 was 1.47 µM (inactive); with LOX IMVI, 0.356 µM (active); in the assay with M14, 1.85 µM (inactive); in the assay with NCI-H460 it was 0.283 µM (active); with NCI-H522, 0.437 µM (active); with OVCAR-3, 1.37 µM (inactive). The GI50 with SF-295 is 1.3 µM (inactive); in the assay with SN12C, 2.33 µM (inactive); in the assay on SR it was 0.424 µM (active); with TK-10, 4.02 µM (inactive); in the assay on UACC-257, 2.84 µM (inactive); in the assay with UO-31, 1.77 µM (inactive).

As for `CCCOP1(=O)C=C(O)C(Cl)=C(C)C1` (centres undefined), the GI50 in the assay on 786-0, in the assay on ACHN, with CCRF-CEM, in the assay on EKVX, in the assay with HCT-116 and in the assay with HL-60 was > 100 µM (inactive) throughout. Further, the GI50 in the assay on KM12 is 41.2 µM (inactive); with LOX IMVI, > 100 µM (inactive); in the assay on M14, > 100 µM (inactive); in the assay with NCI-H460 it was > 100 µM (inactive); in the assay on NCI-H522, > 100 µM (inactive); with OVCAR-3, > 100 µM (inactive). For the same molecule, the GI50 with SF-295, with SN12C, in the assay with SR, in the assay on TK-10, in the assay on UACC-257 and in the assay on UO-31 was > 100 µM (inactive) each time.

For `O=C1CCC(=O)C(C(=O)CCC(=O)Nc2cccc(Cl)c2)C1` (centres undefined), the GI50 with 786-0, in the assay with ACHN, in the assay with CCRF-CEM, with EKVX, in the assay on HCT-116 and in the assay with HL-60 was > 100 µM (inactive) each time. The GI50 in the assay with KM12, in the assay with LOX IMVI, with M14, in the assay with NCI-H460, with NCI-H522 and in the assay with OVCAR-3 was > 100 µM (inactive) each time. Also, the GI50 in the assay with SF-295, in the assay on SN12C, with SR, in the assay with TK-10, in the assay with UACC-257 and in the assay on UO-31 was > 100 µM (inactive) each time.

`COC(=O)C(CC(=O)Nc1ccc(Cl)c(Cl)c1)C(=O)C(=O)NC1C2CC3CC(C2)CC1C3` (centres undefined): the GI50 in the assay with 786-0 is > 100 µM (inactive); with ACHN, > 100 µM (inactive); in the assay on CCRF-CEM, > 100 µM (inactive); in the assay on EKVX it was 54.6 µM (inactive); in the assay with HCT-116 it was > 100 µM (inactive); with HL-60, > 100 µM (inactive). Besides, the GI50 with KM12, in the assay on LOX IMVI, in the assay with M14, with NCI-H460, in the assay on NCI-H522 and with OVCAR-3 was > 100 µM (inactive) throughout. The GI50 in the assay on SF-295, in the assay with SN12C, in the assay on SR, in the assay with TK-10, in the assay on UACC-257 and in the assay on UO-31 was > 100 µM (inactive) throughout.

In the case of `COc1ccc(C2NC3=C(CCCC3)N2)cc1`, the GI50 in the assay with 786-0 is 41.1 µM (inactive); in the assay on ACHN, > 100 µM (inactive); with CCRF-CEM it was > 100 µM (inactive); with HCT-116 it was 64.9 µM (inactive); in the assay on HL-60 it was 29 µM (inactive); in the assay on KM12, 54.3 µM (inactive). Moreover, the GI50 is 56.4 µM (inactive) with LOX IMVI; 37.4 µM (inactive) in the assay with M14; 45 µM (inactive) in the assay on NCI-H460; 40.2 µM (inactive) in the assay on NCI-H522; 71 µM (inactive) in the assay with OVCAR-3; 78 µM (inactive) in the assay on SF-295. Also, the GI50 was > 100 µM (inactive) in the assay with SN12C; 44.8 µM (inactive) in the assay on SR; > 100 µM (inactive) in the assay with TK-10; > 100 µM (inactive) with UACC-257; 77.6 µM (inactive) in the assay on UO-31.

For the molecule `Cc1c(/C=N/N=C/c2[nH]c(C(=O)OC(C)(C)C)c(C)c2C)[nH]c(C(=O)OC(C)(C)C)c1C`, the GI50 in the assay on 786-0 is 50.8 µM (inactive); in the assay on CCRF-CEM, 70.1 µM (inactive); in the assay on EKVX, > 100 µM (inactive); with HCT-116 it was > 100 µM (inactive); with HL-60 it was 43.3 µM (inactive); with KM12 it was > 100 µM (inactive). Further, the GI50 in the assay on LOX IMVI is 61 µM (inactive); in the assay on M14, > 100 µM (inactive); in the assay on NCI-H460, 81.5 µM (inactive); in the assay on NCI-H522, 66.5 µM (inactive); in the assay with OVCAR-3 it was > 100 µM (inactive); in the assay with SF-295, > 100 µM (inactive). Besides, the GI50 in the assay on SN12C, in the assay on SR, in the assay with TK-10, with UACC-257 and with UO-31 was > 100 µM (inactive) throughout.

Take `CC1OC(OCC2OC(Oc3c(-c4ccc(O)cc4)oc4cc(O)cc(O)c4c3=O)C(OC3OCC(O)(CO)C3O)C(O)C2O)C(O)C(O)C1O` (centres undefined): the GI50 was 90.8 µM (inactive) with 786-0; > 100 µM (inactive) in the assay on ACHN; 25.7 µM (inactive) in the assay with CCRF-CEM; > 100 µM (inactive) in the assay on EKVX; 31.2 µM (inactive) with HCT-116; 21.2 µM (inactive) in the assay on HL-60. Besides, the GI50 with KM12 is > 100 µM (inactive); in the assay on LOX IMVI, 51.9 µM (inactive); in the assay on M14 it was > 100 µM (inactive); with NCI-H460, 66.4 µM (inactive); in the assay with NCI-H522, > 100 µM (inactive); with OVCAR-3 it was > 100 µM (inactive). In addition, the GI50 in the assay on SF-295, in the assay with SN12C, with SR, with TK-10, in the assay with UACC-257 and in the assay with UO-31 was > 100 µM (inactive) in each case.

Take `CCOC(=O)c1oc2c(OC)ccc3c2c1CCC3`: the GI50 with 786-0 was > 100 µM (inactive); with ACHN, > 100 µM (inactive); in the assay with CCRF-CEM, 73.3 µM (inactive); with EKVX, > 100 µM (inactive); with HL-60, > 100 µM (inactive); with KM12 it was > 100 µM (inactive). The GI50 with LOX IMVI, with M14, in the assay with NCI-H460, in the assay with NCI-H522, with OVCAR-3 and in the assay with SF-295 was > 100 µM (inactive) throughout. For the same molecule, the GI50 in the assay with SN12C is > 100 µM (inactive); with SR, > 100 µM (inactive); with TK-10, > 100 µM (inactive); with UACC-257, 0.404 µM (active); with UO-31 it was 33.6 µM (inactive).

Take `CC[C@]12C=CCN3CCC4(c5cc([C@@]6(C(=O)OC)CC7CN(CCc8c6[nH]c6ccccc86)CC6CCCCC67)c(OC)cc5N(C)C4[C@](O)(C(=O)OC)C1OC(C)=O)[C@@H]32` (some centres undefined): the GI50 in the assay on 786-0 was < 0.01 µM (active); in the assay on ACHN it was < 0.0146 µM (active); with CCRF-CEM, < 0.01 µM (active); in the assay with EKVX, 0.743 µM (active); with HCT-116, < 0.01 µM (active); with HL-60, < 0.01 µM (active). Also, the GI50 with KM12, in the assay on LOX IMVI, in the assay with M14, in the assay on MDA-MB-435, in the assay with NCI-H460 and in the assay with NCI-H522 was < 0.01 µM (active) throughout. Moreover, the GI50 is < 0.01 µM (active) in the assay with OVCAR-3; < 0.01 µM (active) in the assay with SF-295; < 0.01 µM (active) in the assay on SN12C; 0.0643 µM (active) with TK-10; < 0.01 µM (active) in the assay with UACC-257; 0.157 µM (active) in the assay on UO-31.

As for `NC(C(=O)O)c1ccc(C(=O)O)cc1` (centres undefined), the GI50 in the assay on 786-0, with ACHN, in the assay on CCRF-CEM, in the assay on EKVX, with HL-60 and with KM12 was > 100 µM (inactive) throughout. Also, the GI50 with LOX IMVI, in the assay with M14, in the assay on NCI-H460, in the assay with NCI-H522, with OVCAR-3 and in the assay on SF-295 was > 100 µM (inactive) in each case. Moreover, the GI50 in the assay with SN12C, in the assay with SR, in the assay with TK-10, in the assay on UACC-257 and in the assay on UO-31 was > 100 µM (inactive) in each case.

For the molecule `C/C=C/C1=C(Cl)C(=O)[C@@H](Cl)[C@@]1(O)C(=O)OC` [(+)-CRYPTOSPORIPSIN], the GI50 is 4.94 µM (inactive) in the assay on 786-0; 2.41 µM (inactive) in the assay with ACHN; 0.912 µM (active) in the assay with CCRF-CEM; 3.65 µM (inactive) in the assay on EKVX; 2.84 µM (inactive) in the assay on HCT-116; 1.7 µM (inactive) in the assay with HL-60. For the same molecule, the GI50 in the assay on KM12 was 7.13 µM (inactive); with LOX IMVI, 2.24 µM (inactive); in the assay on M14 it was 3.13 µM (inactive); with NCI-H460, 5.09 µM (inactive); in the assay with NCI-H522 it was 1.06 µM (active); with OVCAR-3 it was 2.45 µM (inactive). The GI50 is 11.2 µM (inactive) with SF-295; 2.65 µM (inactive) in the assay with SN12C; 1.84 µM (inactive) in the assay with SR; 3.13 µM (inactive) in the assay on TK-10; 1.6 µM (inactive) with UACC-257; 5.61 µM (inactive) in the assay with UO-31.
